Assay [1] deals with amyloid-β (Aβ42) aggregates (Homo sapiens, UniProt P05067). Kind of assay: fluorescence intensity binding assay with synthetic Aβ[…] aggregates.
The target in assay [2] is amyloid-β (Aβ40) aggregates (Homo sapiens, UniProt P05067). The description is as above.

The structures appear in SMILES notation.

The record followed here is paper PMC10040441 (Nature biomedical engineering, 2023).

amyloid-β (Aβ42) aggregates, sequence (P05067 672-713): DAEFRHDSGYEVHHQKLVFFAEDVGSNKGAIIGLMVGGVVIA
amyloid-β (Aβ40) aggregates, sequence (P05067 672-711): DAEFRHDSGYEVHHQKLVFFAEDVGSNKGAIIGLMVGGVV

Regarding `CC1(C)C(/C=C/C2=C(c3ccc(CCC(=O)O)cc3)C(=C/C=C3/N(CCC[N+](C)(C)C)c4ccc(S(=O)(=O)O)cc4C3(C)C)/CCC2)=[N+](CCC[N+](C)(C)C)c2ccc(S(=O)(=O)O)cc21` [ZW800–1C], the Kd in assay [1] was 78.9 ± 12.3 nM; in assay [2] it was 43.7 ± 5.8 nM.

Usually Kd stands for a measure of binding affinity in units of concentration. Low values mean tighter binding, high ones weaker binding.
